Columns and labels:
[1] = molecular target: T1, human VR1 (Homo sapiens, UniProt Q8NER1); assay: Human VR1 [3H]RTX binding assay; conditions: for h Binding % I (1 μM) / inhibition at 1 µM: inhibition of [3H]RTX binding at 1 μM; for Ki: [3H]RTX binding, HEK293 membranes; for inhibition at 1 µM: read-out: h Binding % I (1 μM)
T1 construct: expressed in transfected cells; host or cells: HEK293
Procedure: Compounds of the present invention were tested for their ability to inhibit the binding of tritiated resiniferatoxin ([^3H] RTX) to human VR1 receptors in a [^3H] RTX binding assay, as previously described (Zhang, Sui-Po. Improved ligand binding assays for vanilloid receptors. PCT Int. Appl. (2002), WO 0233411 A1 20020425 AN 2002:315209; Grant, Elfrida R., Dubin, Adrienne E., Zhang, Sui-Po, Zivin, Robert A., Zhong, Zhong Simultaneous intracellular calcium and sodium flux imaging in human VR1-transfected human embryonic kidney cells: a method to resolve ionic dependence of VR1-mediated cell death. J. Pharmacol. Exp. ther., 2002, 300(1), 9-17.) HEK293 cells were transfected with human VR1 and washed with Hank's balanced Salt Solution, dissociated with cell dissociation buffer (Sigma), and then centrifuged at 1000× g for 5 min. Cell pellets were homogenized in cold 20 mM HEPES buffer (pH 7.4), containing 5.8 mM NaCl, 320 mM sucrose, 2 mM MgCl2, 0.75 CaCl2 and 5 mM KCl and centrifuged at 1000× g for 15 min. The resultant supernate was then centrifuged at 40000× g for 15 min. The pelleted membranes were stored in a freezer at −80 C.
Approximately 120 μg protein/ml from membranes were incubated with indicated concentrations of [^3H]RTX in 0.5 ml of the HEPES buffer (pH 7.4) containing 0.25 mg/mL fatty acid-free bovine serum albumin at 37 C for 60 min. After cooling the reaction mixture to 4 C, 0.1 mg (x-acid glycoprotein was added to each sample, which was incubated at 4 C for 15 min and then centrifuged at 18500× g for 15 min. The tip of the microcentrifuge tube containing the pellet was cut off. Bound radioactivity was quantified by scintillation counting. Non-specific binding was assessed in the presence of 200 nM unlabeled resiniferatoxin.
Data were calculated according to the equation: % inhibtion=(total binding−binding)*100/(total binding−non specific binding).
Ki values were calculated based on an average of duplicate measurements using a GraphPad Prism program.

[2] = molecular target: T1, human VR1; assay: Human VR1 functional assay (FLIPR intracellular Ca2+); type: cell-based; conditions: for inhibition at 1 µM: read-out: h % I (1 μM); for IC50: antagonism of capsaicin-induced Ca2+ increase, read-out: h IC50
Procedure: The functional activity of the test compounds was determined by measuring changes in intracellular calcium concentration using a Ca^2+-sensitive fluorescent dye and FLIPR™ technology. Increases in Ca^2+ concentration were readily detected upon challenge with capsaicin. HEK293 Cells expressing human VR1 were grown on poly-D-lysine coated 384 well black-walled plates (BD 354663) and 1 day later loaded with Calcium 3 Dye for 35 min at 37 C, 5% CO2 and then for 25 min at room temperature, and subsequently tested for agonist-induced increases in intracellular Ca^2+ levels using FLIPR™ technology. Cells were challenged with test compounds (at varying concentrations, which are indicated in parentheses in the heading of the table below) and intracellular Ca^2+ was measured for 5 min prior to the addition of capsaicin to all wells to achieve a final concentration of eliciting an approximate 80% maximal response ([…]). EC50 or IC50 values were determined from dose-response studies. Curves were generated using the average of quadruplicate wells for each data point.

[3] = inhibition of capsaicin response

T1 sequence (Q8NER1 whole entry): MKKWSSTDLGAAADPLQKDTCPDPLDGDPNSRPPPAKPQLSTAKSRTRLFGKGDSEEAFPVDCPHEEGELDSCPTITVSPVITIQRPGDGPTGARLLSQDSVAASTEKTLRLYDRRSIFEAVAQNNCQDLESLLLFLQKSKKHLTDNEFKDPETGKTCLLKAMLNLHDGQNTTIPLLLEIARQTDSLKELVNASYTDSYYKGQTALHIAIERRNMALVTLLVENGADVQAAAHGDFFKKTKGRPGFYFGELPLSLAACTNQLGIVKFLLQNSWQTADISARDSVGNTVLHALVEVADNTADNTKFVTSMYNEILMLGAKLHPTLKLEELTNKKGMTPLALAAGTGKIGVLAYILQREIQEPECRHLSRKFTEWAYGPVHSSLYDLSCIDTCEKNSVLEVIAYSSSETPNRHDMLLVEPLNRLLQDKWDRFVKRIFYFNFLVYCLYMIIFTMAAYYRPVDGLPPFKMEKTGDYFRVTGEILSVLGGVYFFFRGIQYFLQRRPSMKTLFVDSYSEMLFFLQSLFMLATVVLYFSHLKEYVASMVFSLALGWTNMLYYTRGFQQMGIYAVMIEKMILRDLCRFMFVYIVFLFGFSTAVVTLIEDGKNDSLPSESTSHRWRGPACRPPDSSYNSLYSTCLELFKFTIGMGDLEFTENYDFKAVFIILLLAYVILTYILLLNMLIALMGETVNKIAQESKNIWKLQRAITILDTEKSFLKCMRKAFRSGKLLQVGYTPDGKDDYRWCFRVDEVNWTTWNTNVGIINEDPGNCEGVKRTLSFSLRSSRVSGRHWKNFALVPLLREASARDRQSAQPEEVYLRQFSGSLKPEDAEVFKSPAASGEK

| h Binding % I (1 μM) [1] [%] | SMILES | further results |
| --- | --- | --- |
| 41 | CC(C)(C)c1ccc(CCC(=O)Nc2ccc(-c3cccc(F)c3)cc2)cc1 [Cpd 15] | % Response Relative to EC80 of Capsaicin (12 μM) ([2]; agonist response): 80% |
| – | CC(C)(C)c1ccc(CCC(=O)Nc2cc(F)c(-c3ccncc3)c(F)c2)cc1 [Cpd 169] | Ki [1]: 48 nM; Emax at 6 µM ([2]; agonist response, 6 μM, read-out: % Response Relative to EC80 of Capsaicin (6 μM)): 45%; inhibition at 1 µM [2, 3]: 96% |
| – | CC(C)(C)c1ccc(CCC(=O)Nc2ccc(-n3cncn3)cc2)cc1 [Cpd 198] | inhibition at 1 µM [1]: 37%; IC50 [2]: 3.82 nM |
| 16 | CC(=O)Nc1cccc(-c2ccc(NC(=O)CCc3ccc(C(F)(F)F)cc3)cn2)c1 [Cpd 145] | % Response Relative to EC80 of Capsaicin (12 μM) ([2]; agonist response): 92% |
| 11 | Cc1cc(-c2cccc(C(N)=O)c2)ccc1NC(=O)CCc1ccc(C(C)(C)C)cc1 [Cpd 50] | – |
| 15 | CC(=O)Nc1cccc(-c2ccc(NC(=O)CCc3ccc(C(C)(C)C)cc3)c3ccncc23)c1 [Cpd 154] | – |
| – | CC(C)(C)c1ccc(CCC(=O)Nc2ccc(-c3ncccn3)cc2)cc1 [Cpd 112] | Ki [1]: 216 nM; inhibition at 1 µM [1]: 68% |
| 5 | CC(=O)Nc1cccc(-c2ccc(NC(=O)CCc3ccc(C(C)(C)C)cc3)c(C)c2)c1 [Cpd 54] | – |
| 33 | CC(=O)Nc1cccc(-c2ccc(NC(=O)CCc3ccc(C(C)(C)C)s3)cc2)c1 [Cpd 64] | – |
| 76 | Cc1cc(C)n(-c2ccc(NC(=O)CCc3ccc(C(C)(C)C)cc3)cc2)n1 [Cpd 196] | – |
| 1 | COc1ccc(-c2cccc(NC(=O)CCc3ccc(C(C)(C)C)cc3)c2)cn1 [Cpd 119] | – |
| – | COc1cccc(-c2ccc(NC(=O)CCc3ccc(C(C)(C)C)cc3)cc2)c1 [Cpd 27] | Ki [1]: 846 nM; inhibition at 1 µM [1]: 53% |
| 1 | CC(C)(C)c1ccc(CCC(=O)Nc2ccc(-c3cccc(C(N)=O)c3)cc2F)cc1 [Cpd 52] | – |
| – | CC(C)(C)c1ccc(CCC(=O)Nc2ccc(-n3ccnc3)cc2)cc1 [Cpd 261] | Ki [1]: 311 nM |
| 1 | CNC(=O)c1cccc(-c2ccc(NC(=O)CCc3ccc(C(C)(C)C)cc3)c(C(=O)O)c2)c1 [Cpd 67] | – |
| – | CC(C)(C)c1ccc(/C=C/C(=O)Nc2cccc(-c3cccc(C(N)=O)c3)c2)cc1 [Cpd 33] | Ki [1]: 171 nM; inhibition at 1 µM [1]: 82% |
| 1 | CC(C)(C)c1ccc(CCC(=O)Nc2cccc(-c3cncnc3)c2)cc1 [Cpd 117] | – |
| 1 | CC(=O)Nc1cccc(-c2ccc(NC(=O)CCc3ccc(C(C)(C)C)cc3)nc2)c1 [Cpd 125] | – |
| 40 | CC(C)(C)c1ccc(CCC(=O)Nc2ccc(-c3cccc(CO)c3)cc2)cc1 [Cpd 23] | – |
| 1 | CC(C)(C)c1ccc(CCC(=O)Nc2ccc(-c3cccc(C(N)=O)c3)cc2C(=O)O)cc1 [Cpd 66] | – |
| 25 | CC(C)(C)c1ccc(CCC(=O)Nc2ccc(-c3cccc(CO)c3)nc2)cc1 [Cpd 134] | – |
| 39 | CC(C)(C)c1ccc(CCC(=O)Nc2ccc(-c3ccc4cc[nH]c4c3)cc2)cc1 [Cpd 123] | – |
| 9 | CC(C)(C)c1ccc(CCC(=O)Nc2cccc(-c3cccc(O)c3)n2)cc1 [Cpd 126] | – |
| 100 | CC(C)(C)c1ccc(CCC(=O)Nc2ccc(-n3cnc(Cl)c3Cl)cc2)cc1 [Cpd 200] | – |
| 1 | CC(C)(C)c1ccc(CCC(=O)Nc2ccc(-c3cccc(C(N)=O)c3)cc2)s1 [Cpd 63] | – |
| 16 | CC(C)(C)c1ccc(CCC(=O)Nc2ccc(-c3cccc(C(N)=O)c3)nc2)cc1 [Cpd 127] | – |
| 1 | CC(C)(C)c1ccc(CCC(=O)Nc2cccc(-c3cccnc3)c2)cc1 [Cpd 106] | – |

| h Binding % I (1 μM) [1] [%] | SMILES | further results |
| --- | --- | --- |
| 36 | COc1ccc(-c2ccc(NC(=O)CCc3ccc(C(C)(C)C)cc3)cc2)cn1 [Cpd 121] | – |
| 50 | CC(C)(C)c1ccc(CCC(=O)Nc2ccc(-c3c[nH]cn3)cc2)cc1 [Cpd 192] | – |
| 1 | CC(C)(C)c1ccc(CCC(=O)Nc2ccc(-c3ccncc3)cc2CO)cc1 [Cpd 140] | – |
| 33 | CC(C)(C)c1ccc(CCC(=O)Nc2ccc(-c3ccncc3)c3cnccc23)cc1 [Cpd 156] | – |
| 1 | CC(C)(C)c1ccc(CCC(=O)Nc2cnc(-c3cccc(C(N)=O)c3)cn2)cc1 [Cpd 131] | – |
| 1 | CC(C)(C)c1ccc(CCC(=O)Nc2ccc(-c3ccncc3)c(C(=O)O)c2)cc1 [Cpd 141] | – |
| – | CC(C)(C)c1ccc(CCC(=O)Nc2ccc(-c3cccc4[nH]ccc34)cc2)cc1 [Cpd 122] | Ki [1]: 335 nM; inhibition at 1 µM [1]: 64% |
| – | CC(C)(C)c1ccc(CCC(=O)Nc2ccc(-c3cccc(C#N)c3)cc2)cc1 [Cpd 25] | Ki [1]: 103 nM; inhibition at 1 µM [1]: 94% |
| 1 | CC(C)(C)c1ccc(CCC(=O)Nc2ncc(-c3cccc(C(N)=O)c3)cn2)cc1 [Cpd 130] | – |
| 16 | CC(=O)Nc1cccc(-c2ccc(NC(=O)CCc3ccc(C(C)(C)C)cc3)c(F)c2)c1 [Cpd 56] | – |
| 1 | CC(C)(C)c1ccc(CCC(=O)Nc2ccc(-c3ccncc3)cc2C(=O)O)cc1 [Cpd 139] | – |
| – | CC(C)(C)c1ccc(CCC(=O)Nc2ccc(-c3ccccn3)cc2)cc1 [Cpd 110] | Ki [1]: 11.3 nM; inhibition at 1 µM [1]: 97% |
| 19 | Cc1cc(NC(=O)CCc2ccc(C(C)(C)C)cc2)ccc1-c1cccc(C(N)=O)c1 [Cpd 51] | – |
| 49 | CC(C)(C)c1ccc(CCC(=O)Nc2ccc(-c3cnco3)cc2)cc1 [Cpd 193] | – |
| 89 | CC(C)(C)c1ccc(CCC(=O)Nc2ccc(-c3cccc(O)c3)c3cnccc23)cc1 [Cpd 155] | – |
| 1 | O=C(CCc1ccc(C(F)(F)F)cc1)Nc1ccc(-c2ccncc2)c2cnccc12 [Cpd 159] | – |
| – | O=C(/C=C/c1ccc(C(F)(F)F)cn1)Nc1ccc(-n2cnc(Cl)c2Cl)c(C(F)(F)F)c1 [Cpd 235, trans-N-[4-(4,5-Dichloro-imidazol-1-yl)-3-trifluoromethyl-phenyl]-3-(5-trifluoromethyl-pyridin-2-yl)-acrylamide] | IC50 [2]: 294 nM; inhibition at 1 µM [2, 3]: 99% |
| 77 | O=C(CCc1ccc(C(F)(F)F)cc1)Nc1ccc(-c2cccc(O)c2)c2cnccc12 [Cpd 158] | – |
| – | CC(C)(C)c1ccc(CCC(=O)Nc2ccc(-c3ccccn3)c(F)c2)cc1 [Cpd 173] | IC50 [2]: 388 nM |
| 1 | CC(C)(C)c1ccc(CCC(=O)Nc2ccc(-c3cccc(O)c3)cc2C(=O)O)cc1 [Cpd 68] | – |
| 1 | CC(C)(C)c1ccc(CCC(=O)Nc2ccc(-c3cccc(C(N)=O)c3)cn2)cc1 [Cpd 124] | – |
| – | CC(C)(C)c1ccc(CCC(=O)Nc2ccccc2-c2ccccc2O)cc1 [Cpd 8] | h % I (10 μM) ([2]; inhibition of capsaicin response, 10 μM): 45% |
| 8 | O=C(CCc1ccc(C(F)(F)F)cc1)Nc1ccc(-c2ccccc2O)nc1 [Cpd 146] | – |
| – | Cc1cc(NC(=O)CCc2ccc(C(F)(F)F)cn2)cnc1-n1cnc(Cl)c1Cl [Cpd 278] | h % I (1 μM) [2, 3]: 36% |
| – | CC(C)(C)c1ccc(CCC(=O)Nc2cnc(-c3ccc(CO)cc3)cn2)cc1 [Cpd 186] | h % I (1 μM) [2, 3]: 6%; h % I (5 μM) ([2]; inhibition of capsaicin response, 5 μM): 39% |
| 1 | NC(=O)c1cccc(-c2ccc(NC(=O)/C=C/c3ccc(C(F)(F)F)cc3)cc2)c1 [Cpd 47] | – |
| 27 | CC(C)(C)c1ccc(CCC(=O)Nc2ccc(-c3cccc(C(N)=O)c3)c(F)c2)cc1 [Cpd 53] | – |
